Activity calls are given as the source filed them. No cut-off for these calls is given here.
Tests used:
Adenosine receptor A1 [1] = molecular target: T1, Adenosine receptor A1 (Rattus norvegicus, UniProt P25099); assay: Displacement of [3H]-DPCPX from Adenosine A1 receptor in Sprague-Dawley rat whole brain membranes; design: species or system Membrane
T1 sequence (P25099 whole entry): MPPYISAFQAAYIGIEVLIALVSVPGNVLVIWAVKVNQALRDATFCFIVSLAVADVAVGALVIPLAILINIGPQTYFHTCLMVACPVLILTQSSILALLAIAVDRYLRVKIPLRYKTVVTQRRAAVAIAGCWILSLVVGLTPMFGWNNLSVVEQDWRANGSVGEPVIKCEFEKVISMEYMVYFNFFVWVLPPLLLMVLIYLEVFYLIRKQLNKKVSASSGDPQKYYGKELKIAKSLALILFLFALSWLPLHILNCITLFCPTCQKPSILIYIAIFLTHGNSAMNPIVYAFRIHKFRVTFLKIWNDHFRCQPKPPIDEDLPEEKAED

Rattus norvegicus [2] = species: Rattus norvegicus; assay: Selectivity ratio of Ki for Adenosine A2A receptor in Sprague-Dawley rat striatal membranes to Ki for Adenosine A1 receptor in Sprague-Dawley rat whole brain membranes
Adenosine receptor A2a [3] = molecular target: T2, Adenosine receptor A2a (Rattus norvegicus, UniProt P30543); assay: Displacement of [3H]-NECA from Adenosine A2A receptor in Sprague-Dawley rat striatal membranes; design: species or system Striatum, Membrane
T2 sequence (P30543 whole entry): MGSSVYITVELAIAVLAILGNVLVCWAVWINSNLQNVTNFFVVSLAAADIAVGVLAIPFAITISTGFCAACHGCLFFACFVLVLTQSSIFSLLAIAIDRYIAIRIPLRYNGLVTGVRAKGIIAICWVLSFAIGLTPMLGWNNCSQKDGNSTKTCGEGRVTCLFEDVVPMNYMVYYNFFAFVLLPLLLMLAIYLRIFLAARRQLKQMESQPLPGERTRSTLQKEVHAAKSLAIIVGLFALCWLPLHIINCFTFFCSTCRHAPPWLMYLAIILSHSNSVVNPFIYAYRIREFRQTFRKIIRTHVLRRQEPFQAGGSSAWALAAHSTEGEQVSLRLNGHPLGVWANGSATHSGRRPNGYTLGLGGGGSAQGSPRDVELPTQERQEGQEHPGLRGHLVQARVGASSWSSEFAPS

Adenosine receptor A1 [4] = molecular target: T1, Adenosine receptor A1
Description: Displacement of [3H]-DPCPX from Adenosine A1 receptor in Sprague-Dawley rat brain cortical membranes in absence of GTP

Adenosine receptor A1 [5] = molecular target: T1, Adenosine receptor A1; remark: listed apart in the source
Description: Displacement of [3H]-DPCPX from Adenosine A1 receptor in Sprague-Dawley rat brain cortical membranes in presence of 0.1 mM GTP

Adenosine receptor A1 [6] = molecular target: T1, Adenosine receptor A1; remark: listed apart in the source
Description: Displacement of [3H]-DPCPX from Adenosine A1 receptor in Sprague-Dawley rat whole brain membranes in absence of GTP

Adenosine receptor A1 [7] = molecular target: T1, Adenosine receptor A1; remark: listed apart in the source
Description: Displacement of [3H]-DPCPX from Adenosine A1 receptor in Sprague-Dawley rat whole brain membranes in presence of 0.1 mM GTP

Rattus norvegicus [8] = assay: Inhibition of CPA-induced hypolocomotion in Sprague-Dawley rat at 0.06 to […], ip administered 25 mins prior to CPA addition measured for 20 mins starting from 5 mins post habituation
Rattus norvegicus [9] = assay: Inhibition of CPA-induced hypolocomotion in Sprague-Dawley rat at 0.03 to 0.1 mg/kg, ip administered 25 mins prior to CPA addition measured for 20 mins starting from 5 mins post habituation; type: functional, organism-based
Adenosine receptor A2a [10] = molecular target: T2, Adenosine receptor A2a; assay: Binding affinity to Adenosine A2A receptor in rat brain tissue by radioligand displacement assay; type: tissue-based

SMILES | Ki (Adenosine receptor A1 [1]) [nM] | Ratio Ki (Rattus norvegicus [2]) | Ki (Adenosine receptor A2a [3]) [nM] | also measured
CCn1c(=O)c2c(nc(COc3ccccc3)n2CC)n(CC)c1=O | 416 | 6 | 2640 | Ki (Adenosine receptor A1 [4]): 356 nM; Ki (Adenosine receptor A1 [5]): 368 nM; Ki (Adenosine receptor A1 [6]): 416 nM; Ki (Adenosine receptor A1 [7]): 397 nM
CCn1c(=O)c2c(nc(CCc3ccccc3)n2CC)n(CC)c1=O | 636 | 8 | 4970 | Ki (Adenosine receptor A1 [4]): 543 nM; Ki (Adenosine receptor A1 [5]): 681 nM; Ki (Adenosine receptor A1 [6]): 636 nM; Ki (Adenosine receptor A1 [7]): 763 nM
CCn1c(=O)c2c(nc(CCCc3ccccc3)n2CC)n(CC)c1=O | 164 | 17 | 2710 | Ki (Adenosine receptor A1 [4]): 139 nM; Ki (Adenosine receptor A1 [5]): 258 nM; Ki (Adenosine receptor A1 [6]): 164 nM; Ki (Adenosine receptor A1 [7]): 209 nM; inhibition (Rattus norvegicus [8]): Active
CCCn1c(=O)c2[nH]c(C3CCCC3)nc2n(CCC)c1=O | – | – | – | inhibition (Rattus norvegicus [9]): Active
Cn1c(=O)c2c(nc(-c3ccccc3)n2C)n(C)c1=O | – | – | – | Ki (Adenosine receptor A2a [10]): 27000 nM
CCn1c(=O)c2c(nc(CCCc3ccccc3)n2C)n(CC)c1=O | 1240 | 3 | 3930 | –
Cn1c(=O)c2c(nc(COc3ccccc3)n2C)n(C)c1=O | 3090 | 0.77 | 2370 | –
OC[C@H]1O[C@@H](n2cnc3c(NC4CCCC4)ncnc32)[C@H](O)[C@@H]1O [N6-CYCLOPENTYLADENOSINE] | – | – | 331 | –
CCn1c(=O)c2c(nc(COc3ccccc3)n2C)n(CC)c1=O | 874 | 2 | 1910 | –

More lines, main results first:

Ki (Adenosine receptor A1 [1]) [nM] | Ratio Ki (Rattus norvegicus [2]) | Ki (Adenosine receptor A2a [3]) [nM] | SMILES | also measured
259 | 19 | 4930 | CCn1c(CCCc2ccccc2)nc2c1c(=O)n(C)c(=O)n2C | –
5740 | 0.86 | 4950 | Cn1c(=O)c2c(nc(CCc3ccccc3)n2C)n(C)c1=O | –
816 | 3 | 2360 | CCn1c(=O)c2c(nc(CCc3ccccc3)n2C)n(CC)c1=O | –
1090 | 3 | 3110 | CCn1c(CCc2ccccc2)nc2c1c(=O)n(C)c(=O)n2C | –
1100 | 2 | 2250 | CCn1c(COc2ccccc2)nc2c1c(=O)n(C)c(=O)n2C | –
1550 | 4 | 6800 | Cn1c(=O)c2c(nc(CCCc3ccccc3)n2C)n(C)c1=O | –

Source: ChEMBL document CHEMBL3616475 (Bioorg Med Chem, 2015)
